Molecules are shown by their SMILES.

The subject of data set [1] is L6 cells. As to the kind of experiment: Glucose uptake test by L6 cells. It is filed as cell-based. Particulars: Rattus norvegicus, 1 hour, 2-deoxy-[3H]-glucose uptake, control (MEM solvent alone) = 100%, read-out: Ratio activity (%); for activity at 10 µg/mL: treatment concentration 10 μg/ml; for activity at 100 µg/mL: treatment concentration 100 μg/ml. As for the experimental part: Glucose Uptake Test by L6 Cells
Each of compounds under test was applied to L6 cells (rat cells originally derived from skeletal muscles) by the following method to measure the stimulating effect on glucose uptake. Namely, L6 cells were suspended in α-minimum essential medium (hereinafter referred to simply as MEM) containing 10% fetal bovine serum (hereinafter referred to simply as FBS), and inoculated into a 96-well plastic plate in an amount of 5×10^4 cells/well and cultivated in an incubator (5% carbon dioxide gas, 37° C.) until the cells grew all over the well. Then, the culture medium was switched to MEM solution containing 2% BS, followed by cultivation further for from 7 to 10 ays (the culture medium was exchanged every three days) to differentiate the cells into skeletal muscle cells. Then, the culture medium was replaced with MEM solution without FBS, followed by cultivation for three hours, and then the compound under test prepared to a treatment concentration (diluted with MEM solution without FBS) was reacted with the skeletal muscle cells at 37° C. for 1 hour. The cells were washed with Krebs-Henseleit-Ringer buffer solution (hereinafter referred to simply as KHR buffer solution), and 2-deoxy-[^3H]-glucose was added to the cells in the KHR buffer solution, followed by treatment at 37° C. for 10 minutes. The treatment solution was removed, the cells were washed with the KHR buffer solution, then the cells were dissolved in a 1N sodium hydroxide solution in an appropriate amount, and the [^3H] radio activity was measured by means of a liquid scintillation counter (cpm) The percentage of the glucose uptake was represented by the percentage of radio activity when the compound under test was applied, taking the radio activity of the control (the MEM solvent alone was applied) as 100%. Each of the compounds as identified in Table 27 was used for treatment at a concentration of each of 10 μg/ml and 100 μg/ml to examine the stimulating effect on glucose uptake.

For data set [2], the system named is KK-Ay/Ta mice. As to the kind of experiment: Test for hypoglycemic effect in KK-Ay/Ta mice. It is filed as in vivo. The settings on record: after 3 hours; 50 mg/kg single oral dose; percentage to level before administration; significant vs vehicle control (P≦0.05). As for the experimental part: Using KK-Ay/Ta mice (purchased from CLEA Japan, Inc.) as spontaneous diabetic type II, the hypoglycemic effect of each of compounds under test was confirmed by the following method.
Male KK-Ay/Ta mice sufficiently preliminarily bred and acclimatized were classified into groups, each consisting of six mice, and each of the compounds under test was administered. Each of the compounds under test as suspended in 0.5% carboxymethyl cellulose (manufactured by Nacalai Tesque), and each compound was orally administered singly in a dose of 50 mg/kg (10 ml/kg) by means of an oral conductor. At the same time, as a group of vehicle control, 0.5% carboxymethyl cellulose was administered in the same volume (10 ml/kg) as for the group of administration of compound under test.
Collection of blood was carried out by the following method before the administration of each of the compounds under test or the vehicle, and at the time as identified in Table 28 after the administration. The tail vein of each mouse was shallowly cut by the edge of a razor to cause bleeding in an amount of blood of from 10 to 20 μL, and the blood was collected by a micropipet. The collected blood samples were immediately mixed with a heparin solution (20 U/ml) (manufactured by Mochida Yakuhin) in the same amount as the respective collected blood samples, and subjected to centrifugation at 4° C. for 5 minutes (10,000 rpm) by means of a cooling centrifugal machine. The plasma after the centrifugation was obtained as a sample for blood glucose level measurement.
The blood glucose level was measured by means of glucose oxidase method, and measured by using a commercially available assay kit (Glucose CII TEST WAKO, manufactured by Wako Pure Chemical Industries, Ltd.). Measurement was carried out on the day after the collection of blood, and the obtained plasma was stored at −20° C. before the measurement.
The blood glucose level at the time of collection of blood was calculated as the percentage to the blood glucose level before administration of the compound under test, and the hypoglycemic effect of the compound under test was evaluated by comparison with the change of the blood glucose level (percentage) of the group of vehicle control at the time of collection of blood. The evaluation results of the hypoglycemic effect are considered to have a significant difference compared with the vehicle control by means of Wilcoxon's rank sum test (P≦0.05)

As to `CSc1nc2ccnn2c(Nc2ccc([N+](=O)[O-])cc2)c1C#N` [compound 200], the melting point (in general, the temperature of the solid-liquid transition) was above 270 °C. Further, in data set [1], the activity at 10 µg/mL was above 115% and the activity at 100 µg/mL was above 115%. Besides, in data set [2], the “Rate of change of blood glucose level” value is listed as 79%.
Take `CSc1nc2ccnn2c(NCc2ccncc2)c1[N+](=O)[O-]` [compound 126]: the melting point fell in the range of 154 to 155 °C. Further, the activity at 10 µg/mL in data set [1] was above 115%.
In turn, `CSc1nc2ccnn2c(NCCC#N)c1C#N` [compound 82] gave a melting point of 188 °C. Further, the activity at 10 µg/mL in data set [1] was above 115%.
Regarding `COc1nc2ccnn2c(NCC2OCCO2)c1C#N` [compound 136], the melting point is 148.3 to 149.7 °C. Further, in data set [1], the activity at 10 µg/mL is above 115% and the activity at 100 µg/mL was above 115%.
The molecule `Cc1nc2ccnn2c(NCCc2ccccc2)c1C#N` [compound 27] gave a melting point of 143 °C. For the same molecule, the activity at 100 µg/mL in data set [1] is above 115%.
In the case of `CSc1nc2ccnn2c(NO)c1C#N` [compound 205], the melting point lay in the range of 214 to 218 °C. Moreover, the activity at 10 µg/mL in data set [1] is above 115%.
`COc1nc2ccnn2c(NCc2ccccc2)c1C#N` [compound 135] registered a melting point of 148.8 to 149.6 °C. For the same molecule, in data set [1], the activity at 10 µg/mL is above 115% and the activity at 100 µg/mL was above 115%.
`COC(=O)c1c(SC)nc2ccnn2c1NOC1OCCO1` [compound 133] displayed a melting point of 126.5 to 127.5 °C. The activity at 10 µg/mL in data set [1] was above 115%.
With `CCOC(=O)c1c(SC)nc2ccnn2c1Nc1ccc(C#N)cc1` [compound 224], the melting point turned out to be 178 °C. In addition, the activity at 10 µg/mL in data set [1] is above 115%.
Take `CSc1nc(NCc2ccncc2)n2nccc2n1` [compound 40]: the melting point turned out to be 136 °C. In addition, in data set [1], the activity at 10 µg/mL was above 115% and the activity at 100 µg/mL was above 115%.
For the molecule `CSc1nc2cc(-c3ccccc3)nn2c(NCc2ccccc2)c1C#N` [compound 46], the melting point stood at 172 °C. Also, the activity at 100 µg/mL in data set [1] is above 115%.
Molecule `CSc1nc2ccnn2c(Nc2cc(C)ns2)c1C#N` [compound 177] had a melting point of 175 to 176 °C. The activity at 100 µg/mL in data set [1] was above 115%.
`CCOC(=O)c1c(SC)nc2ccnn2c1Nc1cccc([N+](=O)[O-])c1` [compound 225] yielded a melting point of 166 to 168 °C. In addition, in data set [1], the activity at 10 µg/mL was above 115%.
Molecule `Cc1nc2ccnn2c(NCc2ccncc2)c1C#N` [compound 29] returned a melting point of 165 °C. In data set [1], the activity at 100 µg/mL was above 115%.
As for `CSc1nc2ccnn2c(Nc2ccccc2)c1C#N` [compound 80], the melting point was in the range of 195 to 196 °C. The activity at 10 µg/mL in data set [1] was above 115%.
Molecule `C#CCNc1c(S(=O)(=O)c2ccccc2)c(SC)nc2ccnn12` [compound 60] yielded a melting point of 162 to 163 °C. Further, the activity at 10 µg/mL in data set [1] is above 115%.
`CSc1nc2ccnn2c(N(C)C)c1C#N` [compound 17] showed a melting point of 144 °C. The activity at 100 µg/mL in data set [1] was above 115%.
In the case of `CSc1nc2ccnn2c(NC2CCCC2)c1C#N` [compound 79], the melting point stood at 118 °C. Also, the activity at 10 µg/mL in data set [1] was above 115%.
As to `CSc1nc2ccnn2c(NCc2ccccc2)c1C#N` [Compound No. 2, 7-benzylamino-5-methylthiopyrazolo[1,5-a]pyrimidine-6-carbonitrile], the melting point is 165 °C. Also, in data set [1], the activity at 10 µg/mL is above 115% and the activity at 100 µg/mL is above 115%.
On to `CCOCSc1nc2ccnn2c(NCc2ccncc2)c1C#N` [compound 118], for which the melting point lay within 160 to 161.6 °C. In data set [1], the activity at 10 µg/mL is above 115% and the activity at 100 µg/mL is above 115%.
In the case of `CCOCNc1c(C#N)c(SC)nc2ccnn12` [compound 9], the melting point is 132 to 133 °C. For the same molecule, in data set [1], the activity at 10 µg/mL is above 115% and the activity at 100 µg/mL was above 115%.
As for `N#Cc1cnc2ccnn2c1NCc1ccccc1` [compound 28], the melting point was 125 °C. Besides, the activity at 100 µg/mL in data set [1] was above 115%.
As for `CSc1nc2ccnn2c(Nc2ccc(C#N)cc2)c1C#N` [compound 168], the melting point was 280 to 281 °C. Also, in data set [1], the activity at 10 µg/mL is above 115% and the activity at 100 µg/mL is above 115%.
Take `CSc1nc2cc(-c3ccccc3)nn2c(NCc2ccncc2)c1C#N` [compound 48]: the melting point amounted to 232 °C. The activity at 100 µg/mL in data set [1] was above 115%.
`CSc1nc2ccnn2c(NCCc2ccccn2)c1C#N` [compound 206] yielded a melting point of 138 to 139 °C. In addition, in data set [1], the activity at 10 µg/mL was above 115%.
Molecule `CSc1nc2ccnn2c(NCCC2OCCO2)c1C#N` [compound 210] had a melting point of 96 to 97 °C. In data set [1], the activity at 10 µg/mL is above 115% and the activity at 100 µg/mL is above 115%.
For the molecule `CSc1nc2ccnn2c(Nc2cccc([N+](=O)[O-])c2)c1C#N` [compound 218], the melting point fell in the range of 180 to 182 °C. In data set [1], the activity at 10 µg/mL was above 115% and the activity at 100 µg/mL was above 115%.
In turn, `CCOC(=O)c1c(SC)nc2ccnn2c1Nc1ccc([N+](=O)[O-])cc1` [compound 226] returned a melting point of 170 °C. Also, in data set [1], the activity at 10 µg/mL is above 115% and the activity at 100 µg/mL was above 115%.
`COC(=O)c1c(SC)nc2ccnn2c1NCc1ccccc1` [compound 121] returned a melting point of 158.5 to 160.5 °C. In addition, the activity at 100 µg/mL in data set [1] was above 115%.
`CSc1nc2nc3ccccc3n2c(NCc2ccccc2)c1C#N` [compound 47]: the melting point was determined as 233 °C. For the same molecule, the activity at 100 µg/mL in data set [1] was above 115%.
Take `CSc1nc2cc(C)nn2c(Nc2cccc(C)c2)c1C#N` [compound 191]: the melting point is 174 to 176 °C. In addition, in data set [1], the activity at 10 µg/mL is above 115%.
`CSc1nc2cc(C)nn2c(NOCc2ccccc2)c1C#N` [compound 190] gave a melting point of 155 to 156 °C. The activity at 100 µg/mL in data set [1] is above 115%.
On to `COCSc1nc2ccnn2c(NCc2ccncc2)c1C#N` [compound 108], for which the melting point was 164 to 165.5 °C (dec.). Further, the activity at 100 µg/mL in data set [1] is above 115%.
The molecule `CCNc1c(C#N)c(SC)nc2ccnn12` [compound 15] gave a melting point of 133 °C. For the same molecule, in data set [1], the activity at 100 µg/mL is above 115%.
On to `CSc1nc2ccnn2c(Nc2ccc(Cl)cc2)c1C#N` [compound 161], for which the melting point lay in the range of 275 to 276 °C. The activity at 10 µg/mL in data set [1] is above 115%.
As to `N#Cc1c(SCc2ccccc2)nc2ccnn2c1NCc1ccncc1` [compound 71], the melting point is 187.8 to 189.2 °C (dec.). In data set [1], the activity at 10 µg/mL was above 115% and the activity at 100 µg/mL is above 115%.
In the case of `CSc1nc2ccnn2c(Nc2cccnc2)c1C#N` [compound 178], the melting point was 214 to 215 °C. Moreover, in data set [1], the activity at 10 µg/mL was above 115% and the activity at 100 µg/mL was above 115%.
`CCOC(=O)c1c(SC)nc2ccnn2c1NCc1ccccc1` [compound 222] had a melting point of 114 to 115 °C. The activity at 10 µg/mL in data set [1] was above 115%.
`CSc1nc2ccnn2c(Nc2ccc3c(c2)OCO3)c1C#N` [compound 211] displayed a melting point of 158 to 159 °C. In addition, in data set [1], the activity at 10 µg/mL was above 115% and the activity at 100 µg/mL is above 115%.

Source of the values: patent publication US7067520B2, “Preventive or therapeutic medicines for diabetes containing fused-heterocyclic compounds or their salts” (Ishihara Sangyo Kaisha, Ltd., priority 2000, dated 2006).
